Data: patent publication US20040219175A1, “Thermogelling emulsions for sustained release of bioactive substances” (Industrial Technology Research Institute, priority 2002, published 2004)

System: hepatitis B virus
Test: Anti-viral effect on hepatitis B virus in SCID mice injected with patient serum, plasma HBsAg by ELISA
Assay type: in vivo
Description: The serum of the patient infected with hepatitis B virus was collected and injected into the SCID mice. Interferon-alpha, Interferon-alpha-containing emulsions and untreated groups of mice were divided to evaluate antiviral bioactivity of inteferon. Different formulations were administered at the interferon-alpha dose of 1000 units/g body weight of mice. Three days later, blood was collected and the concentrations of hepatitis B virus surface antigen (HBsAg) in plasma were determined by ELISA method.

Interferon-alpha was tested, and the “anti-viral effect compared to the untreated control” value (p<0.05) was “statistically significant anti-viral effect” and the “relative HBsAg ratio to the untreated control” value (plasma, three days after 1000 units/g body weight, untreated defined as 1.0) was 0.29±0.4.
